According to paper PMC5835287, “Synthesis, Characterization, and BSA-Binding Studies of Novel Sulfonated Zinc-Triazine Complexes” (Bioinorganic Chemistry and Applications, 2018):
Structures can show the parent of a compound that is named as a salt.

Molecular target: T1, bovine serum albumin (BSA) (Bos taurus, UniProt P02769)
T1 construct: gene ALB
Test: UV absorbance titration at […] nm (binding constant Kb from […]/(A-A0) vs […]/[C] plot)
Settings: read-out: UV absorbance titration at 280 nm (binding constant Kb from 1/(A-A0) vs 1/[C] pl) (converted)

T1 sequence (P02769 25-607): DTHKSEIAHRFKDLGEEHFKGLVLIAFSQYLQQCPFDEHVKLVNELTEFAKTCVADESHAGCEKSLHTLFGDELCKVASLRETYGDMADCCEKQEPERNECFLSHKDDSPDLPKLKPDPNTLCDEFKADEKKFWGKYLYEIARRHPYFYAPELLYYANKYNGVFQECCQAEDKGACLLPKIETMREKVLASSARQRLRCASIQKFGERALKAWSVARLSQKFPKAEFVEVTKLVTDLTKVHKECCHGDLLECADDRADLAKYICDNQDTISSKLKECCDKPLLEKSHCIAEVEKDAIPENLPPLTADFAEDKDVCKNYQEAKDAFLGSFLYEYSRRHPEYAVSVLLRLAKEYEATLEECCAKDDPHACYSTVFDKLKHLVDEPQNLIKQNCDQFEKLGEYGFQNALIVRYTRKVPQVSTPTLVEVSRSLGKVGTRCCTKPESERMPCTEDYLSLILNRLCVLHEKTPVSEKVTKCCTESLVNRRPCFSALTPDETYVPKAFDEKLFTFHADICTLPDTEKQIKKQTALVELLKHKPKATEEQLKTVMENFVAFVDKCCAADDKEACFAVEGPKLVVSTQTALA

O=S(=O)(O)c1ccc(-c2nnc(-c3ccccn3)nc2-c2ccc(S(=O)(=O)O)o2)o1 [L1, 3-(2-pyridyl)-5,6-di(2-furyl)-1,2,4-triazine-5′,5″-disulfonic acid disodium salt]
Kd: 32.4 µM
